The results in this text go back to patent US8791107B2, “N-substituted oxazinopteridines and oxazinopteridinones” (Takeda Pharmaceutical Company Limited, priority 2011, dated 2014).

The assay deals with T1, PI3Kδ (Homo sapiens, UniProt O00329).
T1 construct: The protein is full length and co-expressed with untagged PIK3R1; GST; purchased Invitrogen PV5274
T1 sequence (O00329 whole entry): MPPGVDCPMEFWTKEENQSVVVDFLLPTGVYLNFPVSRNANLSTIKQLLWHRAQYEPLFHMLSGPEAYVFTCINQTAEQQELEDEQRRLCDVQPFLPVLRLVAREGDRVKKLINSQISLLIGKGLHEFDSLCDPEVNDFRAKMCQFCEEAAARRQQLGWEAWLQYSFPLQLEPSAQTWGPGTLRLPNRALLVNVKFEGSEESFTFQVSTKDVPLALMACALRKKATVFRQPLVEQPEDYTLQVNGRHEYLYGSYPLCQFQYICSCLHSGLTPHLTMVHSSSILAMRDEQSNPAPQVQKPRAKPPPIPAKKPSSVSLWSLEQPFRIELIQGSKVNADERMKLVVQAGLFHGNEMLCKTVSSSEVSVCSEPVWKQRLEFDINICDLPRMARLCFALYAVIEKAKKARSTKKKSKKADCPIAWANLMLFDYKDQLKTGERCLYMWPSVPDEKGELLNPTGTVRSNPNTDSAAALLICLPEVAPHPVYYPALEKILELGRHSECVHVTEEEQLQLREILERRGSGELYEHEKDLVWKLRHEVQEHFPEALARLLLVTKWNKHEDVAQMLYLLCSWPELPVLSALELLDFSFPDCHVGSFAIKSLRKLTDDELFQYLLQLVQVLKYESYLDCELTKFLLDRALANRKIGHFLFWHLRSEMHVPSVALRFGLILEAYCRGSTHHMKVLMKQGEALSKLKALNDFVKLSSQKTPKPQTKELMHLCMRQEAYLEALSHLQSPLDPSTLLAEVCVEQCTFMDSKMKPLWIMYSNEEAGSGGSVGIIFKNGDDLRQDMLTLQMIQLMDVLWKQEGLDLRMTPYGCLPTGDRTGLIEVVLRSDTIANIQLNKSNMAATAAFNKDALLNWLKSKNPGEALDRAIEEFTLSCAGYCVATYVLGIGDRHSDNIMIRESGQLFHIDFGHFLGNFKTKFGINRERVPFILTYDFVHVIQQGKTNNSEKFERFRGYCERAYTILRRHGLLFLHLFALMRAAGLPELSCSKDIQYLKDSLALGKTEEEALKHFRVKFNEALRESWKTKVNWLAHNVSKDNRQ
T1 sequence (P27986 whole entry partner): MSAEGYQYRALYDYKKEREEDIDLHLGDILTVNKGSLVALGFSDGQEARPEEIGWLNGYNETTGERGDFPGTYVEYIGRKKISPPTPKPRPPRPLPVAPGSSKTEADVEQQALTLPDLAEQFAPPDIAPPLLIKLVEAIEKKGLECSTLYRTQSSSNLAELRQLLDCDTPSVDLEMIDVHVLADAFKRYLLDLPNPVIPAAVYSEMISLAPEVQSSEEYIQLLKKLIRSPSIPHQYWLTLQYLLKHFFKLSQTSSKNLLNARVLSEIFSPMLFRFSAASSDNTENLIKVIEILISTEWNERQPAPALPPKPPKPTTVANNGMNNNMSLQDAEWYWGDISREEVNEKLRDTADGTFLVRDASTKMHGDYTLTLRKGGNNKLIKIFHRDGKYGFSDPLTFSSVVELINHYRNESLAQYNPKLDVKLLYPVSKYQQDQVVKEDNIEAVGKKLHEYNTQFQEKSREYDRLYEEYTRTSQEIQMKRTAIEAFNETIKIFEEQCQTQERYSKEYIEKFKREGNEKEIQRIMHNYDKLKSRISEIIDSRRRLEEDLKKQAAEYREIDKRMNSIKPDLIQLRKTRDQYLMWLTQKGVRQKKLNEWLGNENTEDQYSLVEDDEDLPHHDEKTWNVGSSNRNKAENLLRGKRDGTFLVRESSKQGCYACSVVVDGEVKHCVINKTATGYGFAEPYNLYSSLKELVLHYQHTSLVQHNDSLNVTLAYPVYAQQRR
The assay can be described thus: PI3Kδ inhibition, modified PIK3CD Adapta TR-FRET assay. To be noted: recombinant GST-tagged full length PIK3CD co-expressed with PIK3R1 (p85α); 2 μM ATP, 50 μM PIP2; read-out: PI3Kδ Inhibition (pIC50) (converted). Type of assay: biochemical. On the procedure:
The activity of compounds as PI3Kδ inhibitors may be determined by a variety of methods, including in vitro and in vivo methods. The following in vitro assay measures a test compound's ability to inhibit PI3Kδ-mediated phosphorylation of PIP2 and ATP.
Recombinant GST-tagged PIK3CD is purchased from Invitrogen (Part Number: PV5274). The protein is full length and co-expressed with untagged PIK3R1, phosphoinositide-3-kinase regulatory subunit 1 (p85α). The protein is stored at −20° C. in 50 mM TRIS (pH 7.5), 150 mM NaCl, 0.5 mM EDTA, 0.02% Triton® X-100, 2 mM DTT, and 50% glycerol.
A modified PIK3CD Adapta® assay (Invitrogen, Carlsbad, Calif.) is used to measure PI3Kδ inhibition of the example compounds. The assay has two phases. In the first phase, kinase reaction components, which include the enzyme (PIK3CD), substrates (PIP2, ATP), test compound (inhibitor), and assay buffer are added to each well, and the reaction is allowed to incubate for a pre-determined period of time. […] In the presence of the inhibitor, the amount of ADP formed by the kinase reaction is reduced, and the resulting intact antibody-tracer interaction maintains a high TR-FRET signal.
The reaction buffer contains 50 mM Hepes (pH 7.5), 3 mM MgCl2, 1 mM EGTA, 100 mM NaCl, 0.03% CHAPS; 2 mM DTT is added fresh prior to each experiment. […] Next, test compounds (2 μL) from a source plate (5% dilution plate) are introduced into the wells. The final DMSO concentration in each assay well is 1%. […] Other wells contain test compounds serially diluted across the plate 11 times for a total of 12 data points. The kinase reactions are carried out at room temperature and are initiated by the addition of 4 μL of solution containing 2 μM ATP and 50 μM PIP2. […] This emission signal is referenced or “ratioed” to the emission from Eu at 620 nm. […] The percent inhibition for a given inhibitor concentration is computed from % conversion for the reaction and for the positive and negative controls.
(In general: In TR-FRET formats the signal depends on donor and acceptor labels being close together.)
As for `Clc1cccc2c(-c3ncc4c(n3)N3CCOCC3CN4)c[nH]c12` (centres unmarked) [Example 11, 2-(7-chloro-1H-indol-3-yl)-5,6,6a,7,9,10-hexahydro-[1,4]oxazino[3,4-h]pteridine], the IC50 is over 10000 nM.

Turning to `CC(C)(C#N)NC(=O)CN1C[C@@H]2COCCN2c2nc(-c3cccc4[nH]ccc34)ncc21` [Example 208, (R)-2-(2-(1H-indol-4-yl)-6a,7,9,10-tetrahydro-[1,4]oxazino[3,4-h]pteridin-5(6H)-yl)-N-(2-cyanopropan-2-yl)acetamide], the IC50 was 398 nM.

Turning to `N#Cc1ccc(F)c(CN2CC3COCCN3c3nc(-c4cccc5[nH]ccc45)ncc32)c1` (centres unmarked) [Example 60, 3-((2-(1H-indol-4-yl)-6a,7,9,10-tetrahydro-[1,4]oxazino[3,4-h]pteridin-5(6H)-yl)methyl)-4-fluorobenzonitrile], the IC50 is 31.6 nM.

In the case of `C[C@@H](c1ccc(Cl)cc1)N1C(=O)C2COCCN2c2nc(-c3cccc4[nH]ccc34)ncc21` (mixture of isomers) [Example 163, 5-((S)-1-(4-chlorophenyl)ethyl)-2-(1H-indol-4-yl)-6a,7,9,10-tetrahydro-[1,4]oxazino[3,4-h]pteridin-6(5H)-one], the IC50 was 31.6 nM.

With `CNC(=O)Nc1ccc(-c2ncc3c(n2)N2CCOCC2C(=O)N3C2CCOCC2)cc1` (centres unmarked) [Example 158, 1-methyl-3-(4-(6-oxo-5-(tetrahydro-2H-pyran-4-yl)-5,6,6a,7,9,10-hexahydro-[1,4]oxazino[3,4-h]pteridin-2-yl)phenyl)urea], the IC50 was 7.94 nM.

Turning to `CCc1nnc(C(C)N2C[C@@H]3COCCN3c3nc(-c4cccc5[nH]ccc45)ncc32)o1` (stereo partly drawn) [Example 178, (6aR)-5-(1-(5-ethyl-1,3,4-oxadiazol-2-yl)ethyl)-2-(1H-indol-4-yl)-5,6,6a,7,9,10-hexahydro-[1,4]oxazino[3,4-h]pteridine], the IC50 was 1.58 nM.

As for `CC(C)(O)c1ccc(CN2CC3COCCN3c3nc(-c4cccc5[nH]ccc45)ncc32)cc1` (centres unmarked) [Example 13, 2-(4-((2-(1H-indol-4-yl)-6a,7,9,10-tetrahydro-[1,4]oxazino[3,4-h]pteridin-5(6H)-yl)methyl)phenyl)propan-2-ol], the IC50 is 15.8 nM.

As for `CS(=O)(=O)c1ccc(CN2C(=O)C3COCCN3c3nc(-c4ccc(F)c5[nH]ccc45)ncc32)cc1` (centres unmarked) [Example 142, 2-(7-fluoro-1H-indol-4-yl)-5-(4-(methylsulfonyl)benzyl)-6a,7,9,10-tetrahydro-[1,4]oxazino[3,4-h]pteridin-6(5H)-one], the IC50 was 20 nM.

Take `CS(=O)(=O)c1ccc(CN2C(=O)C3COCCN3c3nc(-c4cc(N)ccn4)ncc32)cc1` (centres unmarked) [Example 141, 2-(4-aminopyridin-2-yl)-5-(4-(methylsulfonyl)benzyl)-6a,7,9,10-tetrahydro-[1,4]oxazino[3,4-h]pteridin-6(5H)-one]: the IC50 is over 10000 nM.

Consider `COC(=O)CCCN1C[C@@H]2COCCN2c2nc(-c3cccc4[nH]ccc34)ncc21` [Example 195, (R)-methyl 4-(2-(1H-indol-4-yl)-6a,7,9,10-tetrahydro-[1,4]oxazino[3,4-h]pteridin-5(6H)-yl)butanoate], for which the IC50 is 3.16 nM.

For `CS(=O)(=O)c1ccc(CN2C(=O)C3COCCN3c3nc(-c4cncc5[nH]ccc45)ncc32)cc1` (centres unmarked) [Example 144, 5-(4-(methylsulfonyl)benzyl)-2-(1H-pyrrolo[2,3-c]pyridin-4-yl)-6a,7,9,10-tetrahydro-[1,4]oxazino[3,4-h]pteridin-6(5H)-one], the IC50 is 2.51 nM.

On to `c1csc(-c2nnc(CN3CC4COCCN4c4nc(-c5cccc6[nH]ccc56)ncc43)o2)c1` (centres unmarked) [Example 33, 2-(1H-indol-4-yl)-5-((5-(thiophen-2-yl)-1,3,4-oxadiazol-2-yl)methyl)-5,6,6a,7,9,10-hexahydro-[1,4]oxazino[3,4-h]pteridine], for which the IC50 is 12.6 nM.

Consider `CS(=O)(=O)c1ccc(CN2CC3COCCN3c3nc(-c4cnc5[nH]ccc5c4)ncc32)cc1` (centres unmarked) [Example 25, 5-(4-(methylsulfonyl)benzyl)-2-(1H-pyrrolo[2,3-b]pyridin-5-yl)-5,6,6a,7,9,10-hexahydro-[1,4]oxazino[3,4-h]pteridine], for which the IC50 is 158 nM.

In the case of `CCc1ccccc1N1C[C@@H]2COCCN2c2nc(-c3cccc4[nH]ccc34)ncc21` [Example 184, (R)-5-(2-ethyl-phenyl)-2-(1H-indol-4-yl)-5,6,6a,7,9,10-hexahydro-[1,4]oxazino[3,4-h]pteridine], the IC50 was 398 nM.

Consider `O=C(CN1C[C@@H]2COCCN2c2nc(-c3cncc4[nH]ccc34)ncc21)NCC1CCOCC1` [Example 174, (R)-2-(2-(1H-pyrrolo[2,3-c]pyridin-4-yl)-6a,7,9,10-tetrahydro-[1,4]oxazino[3,4-h]pteridin-5(6H)-yl)-N-((tetrahydro-2H-pyran-4-yl)methyl)acetamide], for which the IC50 is 7.94 nM.

With `COc1cccc2c(-c3ncc4c(n3)N3CCOCC3CN4)c[nH]c12` (centres unmarked) [Example 9, 2-(7-methoxy-1H-indol-3-yl)-5,6,6a,7,9,10-hexahydro-[1,4]oxazino[3,4-h]pteridine], the IC50 is over 10000 nM.

For the compound `CC(=O)N1CC2COCCN2c2nc(-n3c(C(F)F)nc4ccccc43)ncc21` (centres unmarked) [Example 55, 1-(2-(2-(difluoromethyl)-1H-benzo[c]imidazol-1-yl)-6a,7,9,10-tetrahydro-[1,4]oxazino[3,4-h]pteridin-5(6H)-yl)ethanone], the IC50 is 631 nM.

Regarding `CS(=O)(=O)c1ccc(CN2C(=O)C3COCCN3c3nc(-c4cccc5[nH]ccc45)ncc32)cc1` (centres unmarked) [Example 123, 2-(1H-indol-4-yl)-5-(4-(methylsulfonyl)benzyl)-6a,7,9,10-tetrahydro-[1,4]oxazino[3,4-h]pteridin-6(5H)-one], the IC50 was 0.794 nM.

Regarding `O=C(Cc1cccs1)N1CC2COCCN2c2nc(-c3cccc4[nH]ccc34)ncc21` (centres unmarked) [Example 49, 1-(2-(1H-indol-4-yl)-6a,7,9,10-tetrahydro-[1,4]oxazino[3,4-h]pteridin-5(6H)-yl)-2-(thiophen-2-yl)ethanone], the IC50 was 200 nM.

`O=C1C2COCCN2c2nc(-c3cccc4[nH]ccc34)ncc2N1Cc1ccccc1` (centres unmarked) [Example 145, 5-benzyl-2-(1H-indol-4-yl)-6a,7,9,10-tetrahydro-[1,4]oxazino[3,4-h]pteridin-6(5H)-one]: the IC50 was 25.1 nM.

With `COc1cc(-c2ncc3c(n2)N2CCOCC2C(=O)N3Cc2ccc(S(C)(=O)=O)cc2)ccn1` (centres unmarked) [Example 140, 2-(2-methoxypyridin-4-yl)-5-(4-(methylsulfonyl)benzyl)-6a,7,9,10-tetrahydro-[1,4]oxazino[3,4-h]pteridin-6(5H)-one], the IC50 was 631 nM.

With `CS(=O)(=O)c1ccc(CN2C(=O)C3COCCN3c3nc(-c4ccc5[nH]c(=O)[nH]c5c4)ncc32)cc1` (centres unmarked) [Example 119, 5-(4-(methylsulfonyl)benzyl)-2-(2-oxo-2,3-dihydro-1H-benzo[d]imidazol-5-yl)-6a,7,9,10-tetrahydro-[1,4]oxazino[3,4-h]pteridin-6(5H)-one], the IC50 was 2510 nM.

For the compound `c1cc(-c2ncc3c(n2)N2CCOCC2CN3)c2nc[nH]c2c1` (centres unmarked) [Example 10, 2-(1H-benzo[d]imidazol-4-yl)-5,6,6a,7,9,10-hexahydro-[1,4]oxazino[3,4-h]pteridine], the IC50 is 3160 nM.
